Assay results from patent US20200261484A1, “INHIBITION OF AUTISM SPECTRUM DISORDER USING RIBOSOMAL READ-THROUGH COMPOUNDS” (Friedrich Miescher Inst. for Biomedical Research, priority 2017, published 2020).

Test system: Adnp-PTC718 expressing cells
Assay: Streptavidin purification and LC-MS/MS of FLAG/Avi-tagged Adnp-PTC718 from cells with and without aminoglycoside treatment (stop codon read-through, ChAHP complex formation)
Assay type: cell-based, mouse
Conditions: Adnp-PTC718 expressing cells treated with 2 mg/ml gentamycin (2.9 mM) or paromomycin (3.2 mM) for 24 hours; LC-MS/MS of streptavidin-purified Adnp-PTC718
Procedure: FLAG/Avi-tagged Adnp-PTC718 was streptavidin purified from cells with and without aminoglycoside treatment and subjected to LC-MS/MS analysis. Adnp-PTC718 expressing cells were treated with 2 mg/ml gentamycin (2.9 mM) or paromomycin (3.2 mM) for 24 hours. The table depicts total spectral counts, unique peptides and percent sequence coverage for all ChAHP components from the different treatments.
Cells were grown to confluency on 10 cm dish, collected in PBS, and pelleted by 2 min centrifugation at 400 g. All subsequent steps were performed on ice or at 4 C. Pellets were resuspended in 3 ml of Nuclear extract buffer 1 (NEB1: 20 mM HEPES, 10 mM KCl, 1 mM EDTA, 0.1 mM Na3VO4, 0.2% NP-40, 10% glycerol, 1 mM DTT, 1×PIC) followed by centrifugation at 1000 g for 3 min. […] Protein concentration was determined using Bradford assay, and approximately 250 µg of nuclear extracts were used per affinity purification. […] The generated peptides were acidified with TFA to a final concentration of 0.8% and analyzed by capillary liquid chromatography tandem mass spectrometry with an EASY-nLC 1000 using the two-column set-up (Thermo Scientific). […] Protein identification and relative quantification of the proteins was done with MaxQuant version 1.5.3.8 using Andromeda as search engine^33 and label free quantification (LFQ.^34) as described in^35. […]

## gentamycin
  formation of the ChAHP complex (stop codon read-through): restore the formation of the ChAHP complex

## NC[C@@H]1O[C@H](O[C@H]2[C@@H](O)[C@H](O[C@@H]3[C@@H](O)[C@H](N)C[C@H](N)[C@H]3O[C@H]3O[C@H](CO)[C@@H](O)[C@H](O)[C@H]3N)O[C@@H]2CO)[C@H](N)[C@@H](O)[C@@H]1O [paromomycin]
  formation of the ChAHP complex (stop codon read-through): restore the formation of the ChAHP complex
